Measurements taken from patent US10306878B2, “Insect pest control agent” (priority 2013, dated 2019).

System: female cockroach (periplaneta fuliginosa)
Assay: Efficacy Test 1: Concentrate Dropping Test
Type: in vivo
Details: for Time until the subject insect stops moving (seconds) Average / Time until the subject insect stops moving (seconds) No. 1 / Time until the subject insect stops moving (seconds) No. 2 / Time until the subject insect stops moving (seconds) No. 3 / Time until the subject insect stops moving (seconds) No. 4 / Time until the subject insect stops moving (seconds) No. 5: 0.5 mL dropped between thorax and abdomen; for Time until the subject insect stops moving (seconds) Average: average of five tests; for Time until the subject insect stops moving (seconds) No. 1: repeat No. 1; for Time until the subject insect stops moving (seconds) No. 2: repeat No. 2; for Time until the subject insect stops moving (seconds) No. 3: repeat No. 3; for Time until the subject insect stops moving (seconds) No. 4: repeat No. 4; for Time until the subject insect stops moving (seconds) No. 5: repeat No. 5; for Lethality (%) after 24 hours: 0.5 mL dropped, 24 hours at 20° C., humidity 26%, five tests
Description: A plastic cup (capacity of 860 ml) that is open at the top was provided, and butter was spread on the upper part of the cup interior. Then, as a subject insect, one female cockroach (periplaneta fuliginosa) was gently placed on its back at the bottom of the plastic cup.
After confirming that the subject insect is lying on its back, 0.5 mL of the subject agent in Table 1 was dropped on to the insect between the thorax and the abdomen using a pipet, and the time (seconds) until the subject insect's movement completely stopped was measured.
Subsequently, the subject insect was transferred to another plastic cup and left in a room having a temperature of 20° C. and a humidity of 26%. The number of subject insects that died after 24 hours was counted. The test was repeated five times to obtain the lethality (%) based on the average of the results.

Row | Structure (SMILES) | Time until the subject insect stops moving (seconds) Average [s] | Time until the subject insect stops moving (seconds) No. 1 [s] | Time until the subject insect stops moving (seconds) No. 2 [s] | Time until the subject insect stops moving (seconds) No. 3 [s] | Time until the subject insect stops moving (seconds) No. 4 [s] | Time until the subject insect stops moving (seconds) No. 5 [s] | Lethality (%) after 24 hours [%]
1 | FC(F)C(F)(F)C(F)(F)C(F)(F)C(F)(F)C(F)(F)F [Comparative Example 2, 1H-Tridecafluorohexane] | 56.4 | 54 | 50 | 53 | 62 | 63 | 40
2 | FC(F)(F)/C=C/Cl [Example 1, Trans-1-chloro-3,3,3-trifluoropropene] | 1.4 | 2 | 1 | 1 | 1 | 2 | 80
